Data as given in patent publication US20090012056A1, “Quinoline Compounds Capable of Binding the Cb2 and/or the 5-Ht6 Receptor” (GLAXO GROUP LIMITED, priority 2005, published 2009).
Structures can show the parent of a compound that is named as a salt.

target: T1, human cloned 5-HT6 receptors (Homo sapiens, UniProt P50406); assay: Cyclase assay (cAMP production in membranes of HeLa 5HT6 cells, antagonism of 5-HT); format: biochemical; conditions: cyclase assay with 5-HT at 4xEC50, read-out: fpKi (functional pKi, antagonist potency) (converted)
T1 construct: expressed in transfected cells; host or cells: HeLa cells (membranes)
T1 sequence (P50406 whole entry): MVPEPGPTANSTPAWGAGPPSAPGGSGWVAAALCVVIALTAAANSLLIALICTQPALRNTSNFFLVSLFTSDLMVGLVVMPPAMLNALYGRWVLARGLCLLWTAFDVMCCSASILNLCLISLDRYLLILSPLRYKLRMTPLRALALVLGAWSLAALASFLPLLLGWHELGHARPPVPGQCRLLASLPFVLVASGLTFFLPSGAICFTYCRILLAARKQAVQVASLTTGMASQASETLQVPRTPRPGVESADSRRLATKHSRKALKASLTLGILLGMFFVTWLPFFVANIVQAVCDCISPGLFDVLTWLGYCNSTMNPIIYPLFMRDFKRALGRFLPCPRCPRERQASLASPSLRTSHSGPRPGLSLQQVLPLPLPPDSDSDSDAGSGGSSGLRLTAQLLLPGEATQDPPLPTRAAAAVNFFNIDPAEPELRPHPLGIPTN
Experimental: 0.5 μl of test compound in 100% dimethylsulfoxide (DMSO) was added to a white, solid 384 well assay plate (for dose response measurements the top of the concentration range is 7.5 μM final). 10 μl of washed membranes of HeLa 5HT6 cells (for preparation see WO 98/27081) in basic buffer (50 mM HEPES pH 7.4 (KOH), 1 mM MgCl2, 100 mM NaCl, 1 μl/ml 3-isobutyl-1-methylxanthine (IBMX) (Sigma-Aldrich)) was added to all wells followed by 10 μl 2×ATP buffer (100 μl/ml ATP and 1 μl/ml 3-Isobutyl-1-methylxanthine (IBMX) (Sigma-Aldrich)) with 5-HT (at a concentration equivalent to a dose response of 4×EC50). The resultant mixture was then incubated at room temperature for 30-45 minutes to allow cAMP production.
cAMP production was then measured using the DiscoveRx™ HitHunter™ chemiluminescence cAMP assay kit (DiscoveRx Corporation, 42501 Albrae Street, Fremont, Calif. 94538; Product Code: 90-0004L) or any other suitable cAMP measurement assay.
IC50 values were estimated from arbitrary designated unit (ADU) measurements from a Perkin Elmer Viewlux instrument using a four parameter logistic curve fit within EXCEL (Bowen, W. P. and Jerman, J. C. (1995), Nonlinear regression using spreadsheets. Trends in Pharmacol. Sci., 16, 413-417). Functional Ki values were calculated using the method of Cheng, Y. C. and Prussof, W. H. (Biochemical Pharmacol (1973) 22 3099-3108). pIC50 and fpKi are the negative log 10 of the molar IC50 and functional Ki respectively.

Ki	SMILES
< 100 nM	CC1CCCN(Cc2cccc3cc(S(=O)(=O)c4ccccc4)cnc23)C1 (centres unmarked) [Example 30, 8-[(3-Methyl-1-piperidinyl)methyl]-3-(phenylsulfonyl)quinoline hydrochloride]
< 100 nM	CC(c1cccc2cc(S(=O)(=O)c3ccccc3)cnc12)N1CCCCC1 (centres unmarked) [Example 17, 3-(phenylsulfonyl)-8-(1-piperidin-1-ylethyl)quinoline]
< 100 nM	COC1CCN(Cc2cccc3cc(S(=O)(=O)c4ccccc4)cnc23)CC1 [Example 28, 8-[(4-Methoxypiperidin-1-yl)methyl]-3-(phenylsulfonyl)quinoline hydrochloride]
< 100 nM	CC(c1cccc2cc(S(=O)(=O)c3ccccc3)cnc12)N1CCCC1 (centres unmarked) [Example 16, 3-(Phenylsulfonyl)-8-(1-pyrrolidin-1-ylethyl)quinoline hydrochloride]
< 100 nM	O=S(=O)(c1ccccc1)c1cnc2c(CCN3CCCC3)cccc2c1 [Example 10, 3-(Phenylsulfonyl)-8-[2-(1-pyrrolidinyl)ethylquinoline hydrochloride]
< 100 nM	O=S(=O)(c1ccccc1)c1cnc2c(CCCN3CCCCC3)cccc2c1 [Example 13, 3-(Phenylsulfonyl)-8-[3-(1-piperidinyl)propyl]quinoline]
< 100 nM	O=S(=O)(c1ccccc1)c1cnc2c(CCCN3CCCC3)cccc2c1 [Example 12, 3-(Phenylsulfonyl)-8-[3-(1-pyrrolidinyl)propyl]quinoline hydrochloride]
< 100 nM	O=S(=O)(c1ccccc1)c1cnc2c(CCCN3CCOCC3)cccc2c1 [Example 14]
≤ 1000 nM	CC(c1cccc2cc(S(=O)(=O)c3ccccc3)cnc12)N1CCOCC1 (centres unmarked) [Example 18, 8-(1-morpholin-4-ylethyl)-3-(phenylsulfonyl)-quinoline]
≤ 1000 nM	CC(C)(c1cccc2cc(S(=O)(=O)c3ccccc3)cnc12)N1CCCC1 [Example 22, 8-(1-Methyl-1-pyrrolidin-1-ylethyl)-3-(phenylsulfonyl)quinoline hydrochloride]
< 100 nM	O=S(=O)(c1ccccc1)c1cnc2c(CCN3CCCCC3)cccc2c1 [Example 11, 3-(Phenylsulfonyl)-8-[2-(1-piperidiny)ethyl]quinoline hydrochloride]
< 100 nM	CN(C)CCCc1cccc2cc(S(=O)(=O)c3ccccc3)cnc12 [Example 15, N,N-Dimethyl-3-[3-(phenylsulfonyl)-8-quinolinyl]-1-propanamine]

The remaining lines, values behind:

SMILES	Ki
CCN(C)C(C)c1cccc2cc(S(=O)(=O)c3ccccc3)cnc12 (centres unmarked) [Example 21, N-Ethyl-N-methyl-1-[3-(phenylsulfonyl)quinolin-8-yl]ethanamine hydrochloride]	< 100 nM
CC(C)N(C)C(C)c1cccc2cc(S(=O)(=O)c3ccccc3)cnc12 (centres unmarked) [Example 20, N-Methyl-N-{1-[3-(phenylsulfonyl)quinolin-8-yl]ethyl}propan-2-amine hydrochloride]	< 100 nM
CC(c1cccc2cc(S(=O)(=O)c3ccccc3)cnc12)N(C)C (centres unmarked) [Example 19, N,N-dimethyl-1-[3-(phenylsulfonyl)quinolin-8-yl]ethanamine]	< 100 nM

target: T2, human cannabinoid CB2 receptor (Homo sapiens, UniProt P34972); assay: Cannabinoid CB2 receptor agonist activity in yeast cells expressing the human CB2 receptor (FDGlu fluorescence); format: cell-based; conditions: 24 hours at 30° C., read-out: pEC50 at the CB2 receptor (agonist activity) (converted)
T2 construct: expressed in transfected cells; host or cells: Saccharomyces cerevisiae strain MMY23
T2 sequence (P34972 whole entry): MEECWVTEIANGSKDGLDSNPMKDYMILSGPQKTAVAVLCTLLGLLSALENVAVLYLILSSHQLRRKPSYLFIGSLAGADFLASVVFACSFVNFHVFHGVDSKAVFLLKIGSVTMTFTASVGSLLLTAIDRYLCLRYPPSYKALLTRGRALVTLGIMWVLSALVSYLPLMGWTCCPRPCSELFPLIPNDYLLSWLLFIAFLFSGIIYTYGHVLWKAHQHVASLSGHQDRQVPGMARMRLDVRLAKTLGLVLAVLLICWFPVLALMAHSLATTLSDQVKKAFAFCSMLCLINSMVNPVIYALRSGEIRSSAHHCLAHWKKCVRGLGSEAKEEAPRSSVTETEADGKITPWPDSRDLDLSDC
Description: Yeast (Saccharomyces cerevisiae) cells expressing the human cannabinoid CB2 receptor were generated by integration of an expression cassette into the ura3 chromosomal locus of yeast strain MMY23. This cassette consisted of DNA sequence encoding the human CB2 receptor flanked by the yeast GPD promoter to the 5′ end of CB2 and a yeast transcriptional terminator sequence to the 3′ end of CB2. MMY23 expresses a yeast/mammalian chimeric G-protein alpha subunit in which the C-terminal 5 amino acids of Gpa1 are replaced with the C-terminal 5 amino acids of human Gαi1/23 (as described in Brown et al. (2000), Yeast 16:11-22). Cells were grown at 30° C. in liquid Synthetic Complete (SC) yeast media (Guthrie and Fink (1991), Methods in Enzymology, Vol. 194) lacking uracil, tryptophan, adenine and leucine to late logarithmic phase (approximately 6 OD600/ml).
Agonists were prepared as 10 mM solutions in DMSO. EC50 values (the concentration required to produce 50% maximal response) were estimated using 4 fold dilutions of between 3- and 5-fold (BiomekFX, Beckman) into DMSO. Agonist solutions in DMSO (1% final assay volume) were transferred into black microtitre plates from NUNC Greiner (384-well). Cells were suspended at a density of 0.2 OD600/ml in SC media lacking histidine, uracil, tryptophan, adenine and leucine and supplemented with 10 mM 3-aminotriazole, 0.1M sodium phosphate pH 7.0, and 120 μM fluorescein di-β-D-glucopyranoside (FDGlu). This mixture (50 ul per well) was added to agonist in the assay plates (Multidrop 384, Labsystems). After incubation at 30° C. for 24 hours, fluorescence resulting from degradation of FDGlu to fluorescein due to exoglucanase, an endogenous yeast enzyme produced during agonist-stimulated cell growth, was determined using a fluorescence microtitre plate reader (Tecan Spectrofluor or LJL Analyst excitation wavelength: 485 nm; emission wavelength: 535 nm). Fluorescence was plotted against compound concentration and iteratively curve fitted using a four parameter fit to generate a concentration effect value.
Efficacy (Emax) was calculated from the equation
Emax=Max[compound X]−Min[compound X]/Max[HU210]−Min[HU210]×100% • where Max[compound X] and Min[compound X] are the fitted maximum and minimum respectively from the concentration effect curve for compound X, and Max[HU210] and Min[HU210] are the fitted maximum and minimum respectively from the concentration effect curve for (6aR,10aR)-3-(1,1′-Dimethylheptyl)-6a,7,10,10a-tetrahydro-1-hydroxy-6,6-dimethyl-6H-dibenzo[b,d]pyran-9-methanol (HU210; available from Tocris). Equieffective molar ratio (EMR) values were calculated from the equation
EMR=EC50[compound X]/EC50[HU210] • Where EC50 [compound X] is the EC50 of compound X and EC50 [HU210] is the EC50 of HU210. • pEC50 is the negative log of the EC50.

EC50	SMILES
< 1000 nM	CC1CCCN(Cc2cccc3cc(S(=O)(=O)c4ccccc4)cnc23)C1 (centres unmarked) [Example 30, 8-[(3-Methyl-1-piperidinyl)methyl]-3-(phenylsulfonyl)quinoline hydrochloride]
< 1000 nM	COC1CCN(Cc2cccc3cc(S(=O)(=O)c4ccccc4)cnc23)CC1 [Example 28, 8-[(4-Methoxypiperidin-1-yl)methyl]-3-(phenylsulfonyl)quinoline hydrochloride]
< 1000 nM	O=S(=O)(c1ccccc1)c1cnc2c(CN3CCC(F)(F)C3)cccc2c1 [Example 33, 8-[(3,3-Difluoro-1-pyrrolidinyl)methyl]-3-(phenylsulfonyl)quinoline hydrochloride]
< 1000 nM	O=S(=O)(c1ccccc1)c1cnc2c(CN3CC(F)(F)C3)cccc2c1 [Example 34, 8-[(3,3-Difluoro-1-azetidinyl)methyl]-3-(phenylsulfonyl)quinoline hydrochloride]

Continued, compound first:

SMILES	EC50
CC(C)N(C)C(C)c1cccc2cc(S(=O)(=O)c3ccccc3)cnc12 (centres unmarked) [Example 20, N-Methyl-N-{1-[3-(phenylsulfonyl)quinolin-8-yl]ethyl}propan-2-amine hydrochloride]	< 1000 nM
COc1ccc(S(=O)(=O)c2cnc3c(CN4CCCC(F)(F)C4)cccc3c2)cc1OC [Example 44, 3-{[3,4-Bis(methyloxy)phenyl]sulfonyl}-8-[(3,3-difluoro-1-piperidinyl)methyl]quinolinehydrochloride]	< 1000 nM
CC(c1cccc2cc(S(=O)(=O)c3ccccc3)cnc12)N1CCC(F)(F)C1 (centres unmarked) [Example 36, 8-[1-(3,3-Difluoro-1-pyrrolidinyl)ethyl]-3-(phenylsulfonyl)quinoline]	< 1000 nM
O=S(=O)(c1ccc(Cl)cc1)c1cnc2c(CN3CCCC(F)(F)C3)cccc2c1 [Example 40, 3-[(4-Chlorophenyl)sulfonyl]-8-[(3,3-difluoro-1-piperidinyl)methyl]quinolinehydrochloride]	< 1000 nM
Cc1ccc(S(=O)(=O)c2cnc3c(CN4CCCC(F)(F)C4)cccc3c2)cc1 [Example 39, 8-[(3,3-Difluoro-1-piperidinyl)methyl]-3-[(4-methylphenyl)sulfonyl]quinoline hydrochloride]	< 1000 nM
CC(c1cccc2cc(S(=O)(=O)c3ccccc3)cnc12)N1CC(F)(F)C1 (centres unmarked) [Example 35, 8-[1-(3,3-Difluoro-1-azetidinyl)ethyl]-3-(phenylsulfonyl)quinoline]	< 1000 nM
COc1ccc(S(=O)(=O)c2cnc3c(CN4CCCC(F)(F)C4)cccc3c2)cc1NC(C)=O [Example 43, N-[5-({8-[(3,3-Difluoro-1-piperidinyl)methyl]-3-quinolinyl}sulfonyl)-2-(methyloxy)phenyl]acetamidehydrochloride]	< 1000 nM
CC(c1cccc2cc(S(=O)(=O)c3ccccc3)cnc12)N1CCCC(F)(F)C1 (centres unmarked) [Example 37, 8-[1-(3,3-Difluoro-1-piperidinyl)ethyl]-3-(phenylsulfonyl)quinoline]	< 1000 nM
O=S(=O)(c1ccc(Br)cc1)c1cnc2c(CN3CCCC(F)(F)C3)cccc2c1 [Example 41, 3-[(4-Bromophenyl)sulfonyl]-8-[(3,3-difluoro-1-piperidinyl)methyl]quinolinehydrochloride]	< 1000 nM
COc1ccc(S(=O)(=O)c2cnc3c(CN4CCCC(F)(F)C4)cccc3c2)cc1Cl [Example 42, 3-{[3-Chloro-4-(methyloxy)phenyl]sulfonyl}-8-[(3,3-difluoro-1-piperidinyl)methyl]quinolinehydrochloride]	≤ 10000 nM
Cc1ccc(S(=O)(=O)c2cnc3c(CN4CCCC(F)(F)C4)cccc3c2)cc1Cl [Example 45, 3-[(3-Chloro-4-methylphenyl)sulfonyl]-8-[(3,3-difluoro-1-piperidinyl)methyl]quinolinehydrochloride]	< 1000 nM
O=S(=O)(c1ccc(F)cc1)c1cnc2c(CN3CCCC(F)(F)C3)cccc2c1 [Example 38, 8-[(3,3-Difluoro-1-piperidinyl)methyl]-3-[(4-fluorophenyl)sulfonyl]quinoline hydrochloride]	< 1000 nM
O=S(=O)(c1ccc2ccccc2c1)c1cnc2c(CN3CCCC(F)(F)C3)cccc2c1 [Example 46, 8-[(3,3-Difluoro-1-piperidinyl)methyl]-3-(2-naphthalenylsulfonyl)quinolinehydrochloride]	< 1000 nM
